Consider eight molecules from patent US20190265319A1, “SYSTEM AND METHOD FOR SMALL MOLECULE ACCURATE RECOGNITION TECHNOLOGY ("SMART")” (THE REGENTS OF THE UNIVERSITY OF CALIFORNIA, priority 2016, published 2019).

Peptide text beside a SMILES is read from it.

In this data set the test system is H-460 human lung cancer cells. Type of data set: cell-based. The following applies: for IC50: H-460 human lung cancer cells.

Regarding `C#CCCC[C@@H]1OC(=O)[C@H](C(C)C)NC(=O)[C@H](C)N(C)C(=O)[C@@H]2CCCN2C(=O)[C@H](Cc2ccccc2)OC(=O)[C@H](C(C)C)N(C)C(=O)[C@H](C(C)C)NC(=O)C1(C)C` [viequeamide B] (HELM PEPTIDE1{V.[meV].[O=C([C@H](Cc1ccccc1)O[*:1])[*:2]].P.[meA].V}|CHEM1{[C#CCCC[C@H](O[*:2])C(C)(C)C(=O)[*:1]]}$PEPTIDE1,CHEM1,1:R1-1:R1|PEPTIDE1,CHEM1,6:R2-1:R2$$$V2.0), the H-460 cytotoxicity entry is “no appreciable H-460 cytotoxicity”.

Regarding `C=CCCC[C@@H]1OC(=O)[C@H](C(C)C)NC(=O)[C@H](C)N(C)C(=O)[C@@H]2CCCN2C(=O)[C@H](Cc2ccccc2)OC(=O)[C@H](C(C)C)N(C)C(=O)[C@H](C(C)C)NC(=O)C1(C)C` [viequeamide C] (HELM PEPTIDE1{V.[meV].[O=C([C@H](Cc1ccccc1)O[*:1])[*:2]].P.[meA].V}|CHEM1{[C=CCCC[C@H](O[*:2])C(C)(C)C(=O)[*:1]]}$PEPTIDE1,CHEM1,1:R1-1:R1|PEPTIDE1,CHEM1,6:R2-1:R2$$$V2.0), the H-460 cytotoxicity entry was “no appreciable H-460 cytotoxicity”.

Regarding `CCCCC[C@@H]1OC(=O)[C@H](C(C)C)NC(=O)[C@H](C)N(C)C(=O)[C@@H]2CCCN2C(=O)[C@H](Cc2ccccc2)OC(=O)[C@H](C(C)C)N(C)C(=O)[C@H](C(C)C)NC(=O)C1(C)C` [viequeamide D] (HELM PEPTIDE1{V.[meV].[O=C([C@H](Cc1ccccc1)O[*:1])[*:2]].P.[meA].V}|CHEM1{[CCCCC[C@H](O[*:2])C(C)(C)C(=O)[*:1]]}$PEPTIDE1,CHEM1,1:R1-1:R1|PEPTIDE1,CHEM1,6:R2-1:R2$$$V2.0), the H-460 cytotoxicity entry is on record as “no appreciable H-460 cytotoxicity”.

In the case of viequeamide A2, inhibition was half-maximal at 0.62 µM (IC50).

Turning to viequeamide A3, the half-inhibitory concentration (IC50) (commonly the concentration that inhibits the measured activity by half) came out at 1.98 µM.

Take viequeamide G: the H-460 cytotoxicity entry is reported as “no appreciable H-460 cytotoxicity”.

viequeamide H: the H-460 cytotoxicity result is on record as “no appreciable H-460 cytotoxicity”.

With viequeamide X, the H-460 cytotoxicity entry is “no appreciable H-460 cytotoxicity”.
